Measured values: patent publication US11530210B2, “Substituted heteroaromatic pyrazolo-pyridines and their use as GLUN2B receptor modulators” (JANSSEN PHARMACEUTICA NV, priority 2019, dated 2022)

biological target: T1, human GluN1/GluN2B NMDA receptors (Homo sapiens, UniProt Q13224); assay: Calcium flux (FLIPR) assay on cloned human NR1/GluN2B ion channels expressed in mammalian cells (standard and HTS variants); format: cell-based; conditions: cells expressing human GluN1/GluN2B, glutamate and glycine co-agonists
T1 construct: expressed in transfected cells
Summary of the method: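 Tet-On-induced stable cell line loaded with Calcium 5 dye; compounds applied 5 min (agonist check), then glutamate at ~EC40 plus 10 μM glycine for 5 min. Buffer pH 7.4 with 0.5 mM MgCl2 in dye loading (standard) or 1.5 mM (HTS). FLIPR fluorescence normalized to control wells; (+)MK-801 as antagonist control.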

T1 sequence (Q13224 27-1484, other chains not shown): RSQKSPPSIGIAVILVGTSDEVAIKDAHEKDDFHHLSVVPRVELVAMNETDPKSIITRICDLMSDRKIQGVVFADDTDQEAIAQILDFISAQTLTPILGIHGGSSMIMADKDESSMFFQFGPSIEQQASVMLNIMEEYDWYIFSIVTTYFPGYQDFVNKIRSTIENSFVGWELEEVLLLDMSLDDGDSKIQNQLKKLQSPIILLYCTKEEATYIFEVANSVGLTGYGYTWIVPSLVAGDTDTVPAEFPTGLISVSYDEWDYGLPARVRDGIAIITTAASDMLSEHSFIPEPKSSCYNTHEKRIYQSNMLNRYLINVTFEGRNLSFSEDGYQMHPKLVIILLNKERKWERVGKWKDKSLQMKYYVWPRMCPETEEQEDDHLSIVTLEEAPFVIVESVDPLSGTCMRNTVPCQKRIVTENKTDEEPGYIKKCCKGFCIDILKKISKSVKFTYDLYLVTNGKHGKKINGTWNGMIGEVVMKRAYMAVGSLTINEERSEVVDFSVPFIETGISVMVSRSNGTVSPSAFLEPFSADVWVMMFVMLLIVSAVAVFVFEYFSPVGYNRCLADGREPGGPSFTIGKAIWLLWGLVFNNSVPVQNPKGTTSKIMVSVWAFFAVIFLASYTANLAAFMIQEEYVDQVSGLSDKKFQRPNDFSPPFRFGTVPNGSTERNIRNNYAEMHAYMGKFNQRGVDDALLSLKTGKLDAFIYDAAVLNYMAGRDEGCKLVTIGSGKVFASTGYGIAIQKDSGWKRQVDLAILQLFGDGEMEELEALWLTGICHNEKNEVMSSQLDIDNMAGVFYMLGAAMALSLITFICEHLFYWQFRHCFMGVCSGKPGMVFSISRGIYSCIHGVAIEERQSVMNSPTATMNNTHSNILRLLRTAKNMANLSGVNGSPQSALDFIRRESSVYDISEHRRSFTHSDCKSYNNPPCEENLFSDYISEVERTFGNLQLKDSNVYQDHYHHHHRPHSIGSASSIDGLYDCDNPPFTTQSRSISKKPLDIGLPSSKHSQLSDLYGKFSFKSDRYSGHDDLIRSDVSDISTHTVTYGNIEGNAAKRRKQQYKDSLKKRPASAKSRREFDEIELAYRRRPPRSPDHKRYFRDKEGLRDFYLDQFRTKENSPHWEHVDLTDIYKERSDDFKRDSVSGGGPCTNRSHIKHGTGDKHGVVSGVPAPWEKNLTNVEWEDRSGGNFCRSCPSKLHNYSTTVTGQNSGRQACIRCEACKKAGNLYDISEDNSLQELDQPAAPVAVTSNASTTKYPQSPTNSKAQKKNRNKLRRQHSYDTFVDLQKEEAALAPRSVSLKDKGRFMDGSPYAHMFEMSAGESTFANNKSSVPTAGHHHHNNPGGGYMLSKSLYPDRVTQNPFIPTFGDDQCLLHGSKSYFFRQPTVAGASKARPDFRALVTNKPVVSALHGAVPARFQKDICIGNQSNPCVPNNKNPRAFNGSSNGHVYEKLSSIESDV

Structure (SMILES) | IC50 [nM]
Cc1noc(Cn2ncc3ncc(-c4cc(C(F)(F)F)ccc4F)cc32)n1 [Example 109, 5-[[6-[2-Fluoro-5-(trifluoromethyl)phenyl]pyrazolo[4,3-b]pyridin-1-yl]methyl]-3-methyl-1,2,4-oxadiazole] | 3260
Cc1noc(Cn2ncc3ncc(-c4ccc(F)c(C(F)(F)F)c4)cc32)n1 [Example 110, 5-[[6-[4-Fluoro-3-(trifluoromethyl)phenyl]pyrazolo[4,3-b]pyridin-1-yl]methyl]-3-methyl-1,2,4-oxadiazole] | 400
Cc1noc(Cn2ncc3ncc(-c4cccc(C(F)(F)F)c4F)cc32)n1 [Example 111, 5-[[6-[2-Fluoro-3-(trifluoromethyl)phenyl]pyrazolo[4,3-b]pyridin-1-yl]methyl]-3-methyl-1,2,4-oxadiazole] | 183
Cc1noc(Cn2ncc3ncc(-c4ccc(F)c(OC(F)F)c4)cc32)n1 [Example 112, 5-[[6-[3-(Difluoromethoxy)-4-fluoro-phenyl]pyrazolo[4,3-b]pyridin-1-yl]methyl]-3-methyl-1,2,4-oxadiazole] | 289
Cc1nnc(Cn2ncc3ncc(-c4ccc(F)c(OC(F)F)c4)cc32)o1 [Example 113, 2-[[6-[3-(Difluoromethoxy)-4-fluoro-phenyl]pyrazolo[4,3-b]pyridin-1-yl]methyl]-5-methyl-1,3,4-oxadiazole] | 104
Cc1nc(Cn2ncc3ncc(-c4ccc(F)c(OC(F)F)c4)cc32)no1 [Example 114, 3-[[6-[3-(Difluoromethoxy)-4-fluoro-phenyl]pyrazolo[4,3-b]pyridin-1-yl]methyl]-5-methyl-1,2,4-oxadiazole] | 279
Fc1ccc(-c2cnc3cnn(Cc4nnc(C(F)(F)F)o4)c3c2)cc1OC(F)F [Example 115, 2-[[6-[3-(Difluoromethoxy)-4-fluoro-phenyl]pyrazolo[4,3-b]pyridin-1-yl]methyl]-5-(trifluoromethyl)-1,3,4-oxadiazole] | 414
Cc1nnc(Cn2ncc3ncc(-c4ccc(Cl)c(OC(F)F)c4)cc32)o1 [Example 116, 2-[[6-[4-Chloro-3-(difluoromethoxy)phenyl]pyrazolo[4,3-b]pyridin-1-yl]methyl]-5-methyl-1,3,4-oxadiazole] | 283
Cc1nnc(Cn2nc(F)c3ncc(-c4ccc(Cl)c(OC(F)F)c4)cc32)o1 [Example 117, 2-[[6-[4-Chloro-3-(difluoromethoxy)phenyl]-3-fluoro-pyrazolo[4,3-b]pyridin-1-yl]methyl]-5-methyl-1,3,4-oxadiazole] | 655
Cc1nnc(Cn2ncc3ncc(-c4ccc(F)c(C)c4F)cc32)o1 [Example 118, 2-[[6-(2,4-Difluoro-3-methyl-phenyl)pyrazolo[4,3-b]pyridin-1-yl]methyl]-5-methyl-1,3,4-oxadiazole] | 35
Cc1c(F)ccc(-c2cnc3cnn(Cc4nnc(C(F)(F)F)o4)c3c2)c1F [Example 119, 2-[[6-(2,4-Difluoro-3-methyl-phenyl)pyrazolo[4,3-b]pyridin-1-yl]methyl]-5-(trifluoromethyl)-1,3,4-oxadiazole] | 245
FC(F)(F)c1cccc(-c2cnc3cnn(Cc4csnn4)c3c2)c1 [Example 120, 4-[[6-[3-(Trifluoromethyl)phenyl]pyrazolo[4,3-b]pyridin-1-yl]methyl]thiadiazole] | 895
Cc1nnc(Cn2nc(F)c3ncc(-c4ccc(F)c(C(F)F)c4)cc32)s1 [Example 123, 2-[[6-[3-(Difluoromethyl)-4-fluoro-phenyl]-3-fluoro-pyrazolo[4,3-b]pyridin-1-yl]methyl]-5-methyl-1,3,4-thiadiazole] | 42
Cc1nnc(Cn2ncc3ncc(-c4ccc(Cl)c(OC(F)F)c4)cc32)s1 [Example 135, 2-[[6-[4-Chloro-3-(difluoromethoxy)phenyl]pyrazolo[4,3-b]pyridin-1-yl]methyl]-5-methyl-1,3,4-thiadiazole] | 133
Cc1nnc(Cn2ncc3ncc(-c4ccc(F)c(C)c4F)cc32)s1 [Example 136, 2-[[6-(2,4-Difluoro-3-methyl-phenyl)pyrazolo[4,3-b]pyridin-1-yl]methyl]-5-methyl-1,3,4-thiadiazole] | 17
Cc1csc(-c2cnc3cnn(Cc4cccnc4)c3c2)c1 [Example 137, 6-(4-Methyl-2-thienyl)-1-(3-pyridylmethyl)pyrazolo[4,3-b]pyridine] | 116

Further lines, results first:

IC50 [nM] | Structure (SMILES)
25 | Fc1ccc(-c2cnc3cnn(Cc4nncs4)c3c2)cc1C(F)F [Example 121, 2-[[6-[3-(Difluoromethyl)-4-fluoro-phenyl]pyrazolo[4,3-b]pyridin-1-yl]methyl]-1,3,4-thiadiazole]
66 | Cc1nnc(Cn2nc(C)c3ncc(-c4ccc(F)c(C(F)F)c4)cc32)s1 [Example 124, 2-[[6-[3-(Difluoromethyl)-4-fluoro-phenyl]-3-methyl-pyrazolo[4,3-b]pyridin-1-yl]methyl]-5-methyl-1,3,4-thiadiazole]
138 | CCc1nnc(Cn2ncc3ncc(-c4ccc(F)c(C(F)F)c4)cc32)s1 [Example 125, 2-[[6-[3-(Difluoromethyl)-4-fluoro-phenyl]pyrazolo[4,3-b]pyridin-1-yl]methyl]-5-ethyl-1,3,4-thiadiazole]
1620 | CNc1nnc(Cn2ncc3ncc(-c4ccc(F)c(C(F)F)c4)cc32)s1 [Example 126, 5-((6-(3-(difluoromethyl)-4-fluorophenyl)-1H-pyrazolo[4,3-b]pyridin-1-yl)methyl)-N-methyl-1,3,4-thiadiazol-2-amine]
850 | COc1nnc(Cn2ncc3ncc(-c4ccc(F)c(C(F)F)c4)cc32)s1 [Example 127, 2-[[6-[3-(difluoromethyl)-4-fluoro-phenyl]pyrazolo[4,3-b]pyridin-1-yl]methyl]-5-methoxy-1,3,4-thiadiazole]
> 2990 | CC(=O)Nc1nnc(Cn2ncc3ncc(-c4ccc(F)c(C(F)F)c4)cc32)s1 [Example 128, N-(5-((6-(3-(Difluoromethyl)-4-fluorophenyl)-1H-pyrazolo[4,3-b]pyridin-1-yl)methyl)-1,3,4-thiadiazol-2-yl)acetamide]
17 | Fc1ccc(-c2cnc3cnn(Cc4nnc(C(F)F)s4)c3c2)cc1C(F)F [Example 129, 2-(Difluoromethyl)-5-[[6-[3-(difluoromethyl)-4-fluoro-phenyl]pyrazolo[4,3-b]pyridin-1-yl]methyl]-1,3,4-thiadiazole]
123 | Fc1ccc(-c2cnc3cnn(Cc4nnc(C5CC5)s4)c3c2)cc1C(F)F [Example 130, 2-Cyclopropyl-5-[[6-[3-(difluoromethyl)-4-fluoro-phenyl]pyrazolo[4,3-b]pyridin-1-yl]methyl]-1,3,4-thiadiazole]
57 | Cc1nnc(Cn2ncc3ncc(-c4ccc(Cl)c(C(F)F)c4)cc32)s1 [Example 131, 2-[[6-[4-Chloro-3-(difluoromethyl)phenyl]pyrazolo[4,3-b]pyridin-1-yl]methyl]-5-methyl-1,3,4-thiadiazole]
33 | Cc1nnc(Cn2ncc3ncc(-c4ccc(F)c(C)c4)cc32)s1 [Example 132, 2-[[6-(4-Fluoro-3-methyl-phenyl)pyrazolo[4,3-b]pyridin-1-yl]methyl]-5-methyl-1,3,4-thiadiazole]
72 | Cc1nnc(Cn2ncc3ncc(-c4ccc(F)c(OC(F)F)c4)cc32)s1 [Example 133, 2-[[6-[3-(Difluoromethoxy)-4-fluoro-phenyl]pyrazolo[4,3-b]pyridin-1-yl]methyl]-5-methyl-1,3,4-thiadiazole]
